Results on one compound are retold here after article PMC6591251, “Discovery of potent necroptosis inhibitors targeting RIPK1 kinase activity for the treatment of inflammatory disorder and cancer metastasis” (Cell Death & Disease, 2019).

Test [1] addresses TNIK (Homo sapiens, UniProt Q9UKE5). The test can be described thus: RBC kinase panel. The class given is biochemical. More on the design: purchased Reaction Biology Corporation. How it is done:
(§1) PK68 was tested at 1 μM in duplicate against a panel of 369 human kinases at Reaction Biology Corporation. Results are viewed in the human kinome phylogenetic tree.
(§2) ^a Compound PK68 was tested at 1 μM in duplicate against 369 kinases using the RBC kinase panel service of Reaction Biology Corporation. All the ATP concentrations used were 10 μM. […] Full protocol details are available at http://www.reactionbiology.com.

The target in test [2] is TRKA (Homo sapiens, UniProt P04629). The test can be described thus: RBC kinase panel. The class given is biochemical. More on the design: purchased Reaction Biology Corporation. How it is done:
as §1, §2

For test [3], the system named is RFP-LL/2 cells. As to the kind of experiment: Lung metastasis model of RFP-labeled Lewis lung carcinoma cells. Type of test: in vivo, C57BL/6 mice. The settings on record: 5 mg/kg ip pre-treatment; 14 days. The protocol: (§3) Studies have shown that RIPK1 kinase activity is involved in the promotion of tumor metastasis through death receptor 6-dependent necroptosis of endothelial cells[22] or VEGF-dependent activation of vascular permeability. We thus evaluated the therapeutic effect of PK68 on lung metastasis of mouse melanoma B16-F10 cells in vivo. […] After 2 weeks, the metastasis of B16-F10 cells was measured by histological analysis and assessed as the number of metastasis nodules in the lung. […] Two weeks after intravenous injection of RFP-LL/2 cells, RFP^+ LL/2 cells were isolated from the tumor tissues by flow cytometer sorting and no signal of phosphorylated RIPK1 was detected in these tumors cells (Supplementary Fig. 22). […] Further, we evaluated the effect of PK68 on the tumor cell transmigration across the cultured endothelium. […]
C57BL/6 mice bearing B16-F10 cells (a, b) or RFP-labeled LL/2 cells (c, d) were treated with vehicle, PK68 (5 mg/kg) or Nec-1s (5 mg/kg) as described in the Materials and methods. a, b Tumor metastasis of B16-F10 was measured by the numbers of metastasis nodules and histological analysis. […] The numbers of metastasis nodules on lung surfaces (b) in the metastasis model of B16-F10 were counted with the microscope. c, d Tumor metastasis of RFP-labeled LL/2 was calculated by RFP […] intensity. […]

For test [4], the system named is human and mouse cells. As to the kind of experiment: RIPK1-dependent necroptosis (abstract summary). The class given is cell-based. The conditions noted are these: read-out: EC50, inhibition of RIPK1-dependent necroptosis. The text has this:
Necroptosis is a form of regulated necrosis controlled by receptor-interacting kinase 1 (RIPK1 or RIP1), RIPK3 (RIP3), and pseudokinase mixed lineage kinase domain-like protein (MLKL). […] Herein, we discovered the small-molecule PK6 and its derivatives as a novel class of necroptosis inhibitors that directly block the kinase activity of RIPK1. […] PK68 efficiently blocks cellular activation of RIPK1, RIPK3, and MLKL upon necroptosis stimuli. […] Importantly, PK68 provides strong protection against TNF-α-induced systemic inflammatory response syndrome in vivo.

Test [5] deals with RFP-LL/2 cells through CD31+ endothelial cell monolayer. The test can be described thus: Transendothelial migration assay. Type of test: cell-based, mouse. The settings on record: 2 h pretreatment, 20 h. The protocol:
as §3, with “22). Six hours after intravenous injection of RFP-LL/2 cells into C57BL/6 mice, the RFP-LL/2 cells have extravasated through blood vessels into the lung (Supplementary Fig. 23).” for “22).”
Primary CD31^+ endothelial cells isolated from lungs by using CD31 beads (Miltenyi Biotec) were used for the transendothelial migration assay as previously described. […] Then fluorescence picture of transmigrated RFP-LL/2 cells were taken at ×40 magnification under the microscope (Nikon), and the intensity of fluorescence was analyzed by Image J software. […]

Molecules are shown by their SMILES. pEC50: −log10 of the molar value.

TNIK, sequence (Q9UKE5 whole entry): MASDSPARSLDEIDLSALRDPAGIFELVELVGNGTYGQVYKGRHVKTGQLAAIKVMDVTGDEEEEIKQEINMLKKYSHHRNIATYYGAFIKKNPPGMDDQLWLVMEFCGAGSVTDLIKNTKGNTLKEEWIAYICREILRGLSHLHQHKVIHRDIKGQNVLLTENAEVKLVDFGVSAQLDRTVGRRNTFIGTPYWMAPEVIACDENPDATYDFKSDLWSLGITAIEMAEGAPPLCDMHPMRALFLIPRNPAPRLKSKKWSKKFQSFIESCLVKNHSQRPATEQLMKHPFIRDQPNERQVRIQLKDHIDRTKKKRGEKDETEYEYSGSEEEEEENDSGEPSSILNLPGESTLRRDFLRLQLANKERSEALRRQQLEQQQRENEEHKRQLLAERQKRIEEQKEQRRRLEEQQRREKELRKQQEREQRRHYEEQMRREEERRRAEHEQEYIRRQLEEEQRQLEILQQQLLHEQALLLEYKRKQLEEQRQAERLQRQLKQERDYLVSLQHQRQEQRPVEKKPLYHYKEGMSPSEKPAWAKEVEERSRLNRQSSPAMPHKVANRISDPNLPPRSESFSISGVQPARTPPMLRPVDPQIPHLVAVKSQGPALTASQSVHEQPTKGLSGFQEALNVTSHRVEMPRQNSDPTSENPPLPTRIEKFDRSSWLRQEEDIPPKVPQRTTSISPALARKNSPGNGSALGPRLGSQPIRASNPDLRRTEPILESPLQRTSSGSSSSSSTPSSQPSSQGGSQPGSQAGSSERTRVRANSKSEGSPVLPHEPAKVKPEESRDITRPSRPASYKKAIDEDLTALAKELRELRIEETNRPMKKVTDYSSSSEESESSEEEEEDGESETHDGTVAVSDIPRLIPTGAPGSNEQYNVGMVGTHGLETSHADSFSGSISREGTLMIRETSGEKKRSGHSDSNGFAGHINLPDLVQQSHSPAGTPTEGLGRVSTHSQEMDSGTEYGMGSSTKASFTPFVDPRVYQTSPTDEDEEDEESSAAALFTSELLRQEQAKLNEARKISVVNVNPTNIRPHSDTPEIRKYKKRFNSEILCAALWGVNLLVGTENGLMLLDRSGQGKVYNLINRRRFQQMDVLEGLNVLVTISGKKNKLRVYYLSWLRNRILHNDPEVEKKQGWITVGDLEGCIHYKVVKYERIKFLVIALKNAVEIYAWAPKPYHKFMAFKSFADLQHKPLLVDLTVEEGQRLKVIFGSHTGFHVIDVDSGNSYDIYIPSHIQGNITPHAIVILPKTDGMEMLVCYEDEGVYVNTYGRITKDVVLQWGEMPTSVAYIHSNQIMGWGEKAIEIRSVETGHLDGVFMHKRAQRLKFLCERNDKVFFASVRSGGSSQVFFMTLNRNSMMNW
TRKA, sequence (P04629 33-796): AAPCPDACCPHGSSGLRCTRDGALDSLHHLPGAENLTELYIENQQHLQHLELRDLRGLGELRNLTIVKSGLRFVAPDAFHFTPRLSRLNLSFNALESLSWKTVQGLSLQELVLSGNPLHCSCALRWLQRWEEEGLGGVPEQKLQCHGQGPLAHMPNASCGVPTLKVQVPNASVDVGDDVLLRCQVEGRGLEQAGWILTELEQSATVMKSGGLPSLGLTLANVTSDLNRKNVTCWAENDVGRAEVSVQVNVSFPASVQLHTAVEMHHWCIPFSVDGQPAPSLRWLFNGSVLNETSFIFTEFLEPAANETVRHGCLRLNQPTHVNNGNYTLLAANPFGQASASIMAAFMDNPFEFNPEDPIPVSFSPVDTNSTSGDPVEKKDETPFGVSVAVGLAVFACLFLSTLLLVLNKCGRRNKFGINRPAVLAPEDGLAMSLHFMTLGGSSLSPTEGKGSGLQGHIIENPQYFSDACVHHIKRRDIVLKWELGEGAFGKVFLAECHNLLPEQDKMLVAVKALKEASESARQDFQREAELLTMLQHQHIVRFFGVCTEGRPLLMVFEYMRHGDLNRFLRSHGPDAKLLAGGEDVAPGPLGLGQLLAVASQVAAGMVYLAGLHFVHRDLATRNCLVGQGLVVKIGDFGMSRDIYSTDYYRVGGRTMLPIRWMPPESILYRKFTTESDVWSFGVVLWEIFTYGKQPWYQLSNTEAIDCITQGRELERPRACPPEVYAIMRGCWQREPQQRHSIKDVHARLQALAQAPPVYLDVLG

For the compound `CC(=O)Nc1nc2ccc(-c3cnc(C)c(NC(=O)OC4CCCCC4)c3)cc2s1` [PK68, cyclohexyl (5-(2-acetamidobenzo[d]thiazol-6-yl)-2-methylpyridin-3-yl)carbamate], the Activity% stood at 38.77% in test [1] (1 μM, ATP 10 μM, Data1, Data2) and 28.42% in test [2] (1 μM, ATP 10 μM, Data1, Data2). Moreover, the activity at 1 µM in test [1] (1 μM, ATP 10 μM, Data1, Data2) worked out at 39%; in test [2] (1 μM, ATP 10 μM, Data1, Data2), 29.1%. For the same compound, the inhibition at 1 µM in test [1] (at 1000 nM) and in test [2] (at 1000 nM) was over 50% in each case. Also, in test [3], the “lung metastasis of RFP-LL/2 cells” value is listed as “markedly decreased”. Further, the pEC50 in test [4] was 7.66 to 7.85. In addition, in test [5], the “transmigration of RFP-LL/2 cells through the endothelial cell monolayer” value is “attenuated”.
